Test results published in US6310090A, “Process and product for enhancing immune response in companion animals using a combination of antioxidants” (priority 2000, dated 2001).

Assays:
[1] = test system: PHA (nonspecific antigen); experiment: delayed type hypersensitivity response (skin induration) to PHA, lutein supplementation; format: in vivo, dog (Beagle)
Description: (§1) Skin induration response was assessed in all dogs on weeks 0, 6, and 12. Dogs were injected intradermally in the flank area with saline (8.5 g/L; control), an attenuated polyvalent vaccine containing canine distemper virus, canine adenovirus type-2, canine parainfluenza virus and parvovirus (Vanguard 5, Smithkline Beacham, West Chester, Pa.; specific antigen), and PHA (0.5 g/L; nonspecific antigen). The doses of vaccine and PHA used were previously determined to provide optimal skin response in Beagle dogs of similar age. The injection site was clipped and wiped with 70% ethyl alcohol. The injection volume was 100 μL. Skin induration was measured at 0, 24, 48 and 72 h post-injection with the aid of a pressure-sensitive digital micrometer (Mitsutoyo, Tokyo, Japan) and response was expressed as a percentage of skin thickness measured at 0 h.

[2] = test system: polyvalent vaccine (specific antigen); experiment: delayed type hypersensitivity response to vaccine / vaccine recognition, lutein supplementation; format: in vivo, dog (Beagle)
Description: as §1

[3] = test system: peripheral blood mononuclear cells (PBMC); experiment: mitogen-induced PBMC proliferation, lutein supplementation; format: cell-based, dog (Beagle)
Description: Blood collected on weeks 0, 2, 4, 8 and 12 were used to assess mitogen-induced lymphocyte proliferation by peripheral blood mononuclear cells (PBMC). Whole blood culture was used in order to mimic in vivo conditions. Mitogens used were phytohemagglutinin (PHA), concanavalin A (Con A) and pokeweed mitogen (PWM). Whole blood was thoroughly mixed and then diluted 1:12 with RPMI-1640 containing 25 mM of Hepes, penicillin (100 U/mL) and streptomycin (100 μg/mL) (Sigma, St. Louis, Mo.). […] Triplicate 150 μL volumes were pipetted into 96-well round bottom plates and 50 μl of the appropriate mitogens added. The final concentrations of the mitogens in culture were 2 and 10 μg/mL for PHA, 1 and 5 μg/mL for Con A and 0.5 and 2.5 μg/mL for PWM. The two mitogen concentrations gave maximum (the higher mitogen concentration) and suboptimal (lower mitogen concentration) proliferative responses in preliminary studies using blood from similar animals. The mixture was incubated for 72 h at 37° C. in a humidified incubator under a 5% CO2 atmosphere. Four hours prior to the termination of the incubation period, 20 μL of [^3 H]-thymidine (1 [μCi/well) were added. Cells were harvested onto fiberglass filters and radioactivity was counted by liquid scintillation. Proliferation response of PBMC was expressed as stimulation index (cpm of stimulated cultures/cpm of unstimulated cultures).

CD4+ T-helper cells = experiment: lymphocyte subsets by flow cytometry, lutein supplementation; format: cell-based, dog (Beagle); conditions: 5 and 10 mg lutein, week 12
Description: (§3) Fifty six female Beagle dogs (17 to 18 months old; average body weight 11.4±0.4 kg) were randomly assigned to be supplemented daily with 0, 5, 10 or 20 mg lutein for 17 weeks. The lutein contained 76.66% lutein and 5.23% zeaxanthin. The lutein supplement was resuspended in soybean oil to the appropriate concentration and 1 mL administered perorally at 0800 h daily. Food (200 g/dog/d) was offered immediately after the lutein supplementation. […] All dogs were housed in 2×2 m pens (2 dogs/pen) in a temperature (20 to 22° C.) and light (14 h light) controlled facility. Body weight was recorded at weeks 0, 6, and 12.
(§4) Blood was collected by jugular venipuncture into heparinized evacuated tubes on weeks 0, 2, 4, 8 and 12 and aliquots used for HPLC analysis and for assessing immune responses.
(§5) Blood leukocytes were separated using Histopaque-1119 (Sigma, St. Louis, Mo.). Cells were washed three times with phosphate-buffered saline (PBS, pH 7.4) and contaminating erythrocytes were lysed in NH4 CI (8.4 g/L). Lymphocyte subsets were determined by flow cytometry (FACScan, Becton Dickinson, San Jose, Calif.). […]
(§6) Appropriate negative controls were included to correct for background fluorescence. Data were expressed as the percentage of positive-staining cells corrected for cells stained nonspecifically with the secondary antibody.

CD5+ total T cells = experiment: as above; format: cell-based, dog (Beagle); conditions: weeks 4 and 8, dogs fed lutein
Description: as §3, §4, §5, §6

[4] = test system: MHC class II expressing lymphocytes; experiment: as above; format: cell-based, dog (Beagle); conditions: 20 mg lutein, week 8 and 12
Description: as §3, §4, §5, §6

CD21+ B cells = experiment: as above; format: cell-based, dog (Beagle); conditions: dietary lutein
Description: as §3, §4, §5, §6

IL-2 = IL-2 production by PHA-stimulated PBMC in whole blood cultures, lutein supplementation; format: cell-based, dog (canine)
Description: Whole blood was diluted 1:2 with RPMI-1640 supplemented with Hepes and antibiotics (described earlier) and 400 μL of diluted blood were pipetted into 48-well plates (Costar, Cambridge, Mass.). Cells were stimulated with PHA (400 μL of a 5 μg/mL solution) for 48 hours at […] in a 5% CO2 atmosphere. The plates were centrifuged at 200×g for 10 minutes and the supernatant was frozen at -80° C. The IL-2 content of the culture supernatant was determined in triplicate by ELISA (Intergen, Purchase, N.Y.). The polyclonal anti-human IL-2 cross-reacted with canine IL-2 and recombinant human IL-2 was used as the standard.

IgG = IgG by single radial immunodiffusion, lutein supplementation; format: in vivo, dog (canine)
Description: (§2) Serum collected on weeks 0, 2, 4, 8 and 12 were analyzed for IgG and IgM concentrations by single radial immunodiffusion (SRID). In addition, all dogs were vaccinated with the polyvalent vaccine (Vanguard 5, Smithkline Beacham, West Chester, Pa.) on week 13 and again on week 15 to study the possible anamnestic effect of dietary lutein. Blood was collected weekly from week 13 through week 17. Goat antiserum to canine IgG (10%, whole molecule) or IgM (7.5%, μ chain specific) (ICN, Aurora, Ohio) was mixed with melted agarose (10 g/L in PBS; Sigma Chem. Co., St. Louis, Mo.) and the mixture solidified in SRID plates. Duplicate 5 μL volumes of serum or IgG (0, 2.88, 5.75, 11.5 and 23.0 mg/ml) or IgM (0, 0.25, 0.5, 1.0 and 2.0 mg/ml) standard were loaded into the wells. After incubating for 24 hours at room temperature in a humidified chamber, ring diameters were measured using a SRID reader (Transidyne General Corp., Ann Arbor, Minn.).

IgM = IgM by single radial immunodiffusion, lutein supplementation; format: in vivo, dog (canine); conditions: after revaccination on week 15
Description: as §2

[5] = test system: plasma lipid peroxidation (malondialdehyde); experiment: plasma lipid peroxidation (TBARS) assay, lutein supplementation; format: in vivo, dog (Beagle)
Description: Plasma lipid peroxidation activity was determined by measuring malondialdehyde (MDA) production. The standard used was 1,1,3,3-tetramethoxypropane JMP) (Sigma Chem. Co., St. Louis, Mo.). Duplicate 500 μL plasma samples were pipetted into 15 ml, glass tubes and 3 mL of 10 g/L phosphoric acid and 1 ml of 6 g/L TBA solution were added. The mixture was boiled in a water bath for 45 minutes. Tubes were allowed to cool and the TBA-MDA complex was extracted with 4 ml of n-butanol. The butanol layer was separated by centrifugation at 1,000×g for 10 minutes and absorbance was measured on at 532 nm (Beckman, Fullerton, Calif.). The TBARS activity was expressed in nmole MDA/L plasma.

immune system = experiment: summary of the results from each of the studies (Table 1); format: in vivo, dog
[6] = test system: canine thyroid adenocarcinoma cells
Description: Fifty six female Beagle dogs (17 to 18 months old; average body weight 11.4±0.4 kg) were randomly assigned to be supplemented daily with 0, 5, 10 or 20 mg lutein for 17 weeks. The lutein contained 76.66% lutein and 5.23% zeaxanthin. The lutein supplement was resuspended in soybean oil to the appropriate concentration and 1 mL administered perorally at 0800 h daily. Food (200 g/dog/d) was offered immediately after the lutein supplementation. The basal diet met or exceeded the requirements for all essential nutrients (NRC 1985). All dogs were housed in 2×2 m pens (2 dogs/pen) in a temperature (20 to 22° C.) and light (14 h light) controlled facility. Body weight was recorded at weeks 0, 6, and 12.
as §4
Canine thyroid adenocarcinoma cells were used as target cells in assessing NK cell cytotoxic activity. […] Target cells were cultured in a T75 flask with 20 mL minimum essential medium (MEM; Sigma Chem. Co., St. Louis, Mo.) supplemented with 10% fetal calf serum (FC S), 100 U/mL of penicillin and 100 μg/mL of streptomycin. […] Optical density was measured at 570 nm using a microplate reader. The percentage of NK cell-specific lysis was calculated as follows: […]

[7] = test system: CD8+ T-cytotoxic/suppressor cells; conditions: week 12
Description: as §3, §4, §5, §6

mouse splenocytes = conditions: dietary lutein; cited from earlier work
[8] = averaged across all treatments and all periods

## CC1=C[C@H](O)CC(C)(C)[C@H]1/C=C/C(C)=C/C=C/C(C)=C/C=C/C=C(C)/C=C/C=C(C)/C=C/C1=C(C)C[C@@H](O)CC1(C)C [lutein]
[1]; week 6, 48 and 72 h
  DTH response to PHA, treatment difference: no significant treatment difference
[1]; week 6, 24 h post-injection
  DTH response to PHA: dose-related DTH response
[1]; week 12, 20 mg lutein
  DTH response to PHA vs unsupplemented dogs: significantly higher
[1]; week 12, 24, 48 and 72 h
  DTH response to PHA: general dose-dependent increase
[2]; FIG. 2, addition of lutein to the diet
  improvement of vaccine recognition: ≤ 32%
[2]; week 6, 48 and 72 h post-injection
  DTH response to vaccine: dose-related
[2]; week 6, 24 h
  DTH response to vaccine: not significant
[2]; week 12
  DTH response to vaccine: no significant dietary effect
[3]; 10 mg lutein, week 8
  PWM-stimulated PBMC proliferative response: higher proliferative response
[3]; 10 mg lutein, weeks 8 and 12, 5 μg/mL Con A
  Con A-stimulated PBMC proliferation: higher PBMC proliferation
[3]; 20 mg lutein, week 8 and 12, both concentrations of PWM
  PWM-stimulated PBMC proliferation vs unsupplemented controls: significantly higher PBMC proliferation
[3]; 20 mg lutein, weeks 8 (10 pg/mL PHA) and 12 (2 and 10 μg/mL PHA), P<0.01
  PHA-stimulated PBMC proliferative response vs unsupplemented dogs: enhanced
[3]; 20 mg lutein, weeks 8 and 12, both concentrations of Con A
  Con A-stimulated PBMC proliferation: higher PBMC proliferation
[3]; 5 and 10 mg lutein, week 8, 10 μg/ml PHA
  PHA-stimulated PBMC proliferation: higher PBMC proliferation
[3]; no mitogen
  spontaneous proliferation by unstimulated PBMC: did not significantly influence
[3]; weeks 0 and 4
  PHA-stimulated PBMC response: no significant effect
  PWM-stimulated PBMC proliferation, treatment difference: no significant treatment difference
CD4+ T-helper cells
  % CD4+ cells: higher
CD5+ total T cells
  percentages of CD5+ cells vs unsupplemented controls: generally had higher percentages
[4]
  % MHC class II cell populations vs unsupplemented dogs: elevated
CD21+ B cells
  CD21+ B cell population: did not significantly influence
IL-2; averaged throughout the study, all treatments
  concentrations of IL-2 in culture medium: 15.7 ± 0.4 ng/mL
IL-2; throughout the experimental period
  production of IL-2 by PHA-stimulated PBMC: did not differ significantly
IgG; 5 mg lutein, week 16, after revaccination on week 15, P<0.05
  plasma IgG: higher
IgG; 20 mg lutein, week 17, after revaccination on week 15
  plasma IgG: higher
IgM
  concentration of plasma IgM: not changed
[5]; averaged across all treatments and periods
  plasma TBARS activity: 95.8±0.1 nmol MDA/L
[5]; lutein supplementation
  effect on plasma TBARS activity: did not significantly affect
Immune system; Table 1
  Optimize vaccine recognition by the dog: .check mark.
Immune system; Table 1, Lutein column
  Optimize immune cell activity (B-cells): .check mark.
[8]
  plasma retinol concentration: 3.63 ± 0.14 µmol/L
  plasma α-tocopherol concentration: 37 ± 2 µmol/L
dog, in vivo
  plasma lutein+zeaxanthin vs unsupplemented animals: significantly higher
Lutein supplementation
  influence on plasma retinol and α-tocopherol: did not influence
[6]
  NK cell cytotoxic activity: did not significantly influence
[6]; averaged across all treatments and sampling periods, E:T 10:1
  specific lysis of target cells by PBMC: 49.1±1.1%
[7]
  CD8+ population: not influenced by the diet
Mouse splenocytes
  lymphocyte proliferation in mouse splenocytes: enhance lymphocyte proliferation
